Earlier results on two molecules are cited in patent US20240410831A1, “Multi-Mode Zinc-Selective Emission-Ratiometric Fluorescent Probes for Biological Application” (Georgia Tech Research Corporation, priority 2023, published 2024).

For data set [1] the following is noted: in 1.0 N H2SO4; cited from earlier work.
For data set [2] the following is noted: pH 7.0, 25° C.; read-out: Kd for Zn(II) of competing ligand; cited from earlier work.

Counter-ions that a name gives are not always drawn.

On to `C=C[C@H]1C[N@@]2CC[C@H]1C[C@H]2[C@H](O)c1ccnc2ccc(OC)cc12` [quinine sulfate], for which the “quantum yield of reference standard” value in data set [1] is on record as 0.546. In general, Kd refers to the equilibrium constant for the complex coming apart. In the case of `O=C(O)CN(CCOCCOCCN(CC(=O)O)CC(=O)O)CC(=O)O` [EGTA, ethyleneglycol-bis(β-aminoethyl)-N,N,N′,N′-tetraacetic acid], in data set [2], the Kd is 4.6 nM.
